Ki, Kis and Ratio data for 18 compounds are collected here from ChEMBL document CHEMBL4622948, “SAR of non-hydrolysable analogs of pyridoxal 5'-phosphate against low molecular weight protein tyrosine phosphatase isoforms” (Bioorg Med Chem Lett, 2020).

A word on the Ki: it is a dissociation constant, usually derived from enzyme kinetics or from competition with a known ligand.

A short description of experiment [1]: Competitive inhibition of bovine LMW-PTP isoform B using para-Nitrophenyl phosphate as substrate at pH 5 by Lineweaver-Burk double reciprocal plot analysis. Set-up: species or system Bos taurus.
The target of experiment [2] is T1, Low molecular weight phosphotyrosine protein phosphatase (Homo sapiens, UniProt P24666).
T1 sequence (P24666 whole entry): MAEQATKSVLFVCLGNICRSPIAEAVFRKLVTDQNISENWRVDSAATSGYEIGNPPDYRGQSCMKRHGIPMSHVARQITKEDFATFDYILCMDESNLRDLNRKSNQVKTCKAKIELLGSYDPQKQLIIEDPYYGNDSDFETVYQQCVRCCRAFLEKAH
Description: Competitive inhibition of LMW-PTP isoform A (unknown origin).

Experiment [3] has as its target T2, Low molecular weight phosphotyrosine protein phosphatase (Homo sapiens) (UniProt P24666).
T2 sequence (whole entry): T1 sequence (P24666 whole entry)
Put plainly: Inhibition of LMW-PTP isoform A (unknown origin).

For experiment [4], the target named is T2, Low molecular weight phosphotyrosine protein phosphatase (Homo sapiens). Description: Inhibition of LMW-PTP isoform B (unknown origin).
For a further experiment, the species on record is Homo sapiens. Description: Selectivity index, ratio of Ki for LMW-PTP isoform B (unknown origin) to Ki for LMW-PTP isoform A (unknown origin).

Consider `Cc1ncc(COP(=O)(O)O)c(C=O)c1O` [PYRIDOXAL PHOSPHATE ANHYDROUS], for which the Ki in experiment [1] worked out at 7.6 µM; in experiment [2], 13 µM.

For `O=P(O)(O)/C=C/c1ccccc1`, the Kis in experiment [3] was 482 µM; in experiment [4], above 10000 µM. Moreover, the Ratio in the experiment filed under Homo sapiens was above 21.

Consider `Cc1ncc(CCP(=O)(O)O)c(CO)c1O`, for which the values for the Kis in experiment [3] and in experiment [4] were 10.4 µM and 552 µM, respectively. Besides, the Ratio in the experiment filed under Homo sapiens was determined as 53.

With `O=P(O)(O)C(F)(F)Cc1ccccc1`, the Kis in experiment [3] is 359 µM; in experiment [4], above 10000 µM. The Ratio in the experiment filed under Homo sapiens is above 28.

On to `O=P(O)(O)CCc1cccnc1`, for which the Kis is 103 µM in experiment [3] and 1080 µM in experiment [4]. Moreover, in the experiment filed under Homo sapiens, the Ratio is 10.4.

For the compound `Cc1ccc(CCP(=O)(O)O)cc1O`, the Kis in experiment [3] was determined as 3.59 µM; in experiment [4], 39.9 µM. For the same compound, the Ratio in the experiment listed under Homo sapiens was 11.

With `O=P(O)(O)/C=C/c1cccc(O)c1`, the Kis in experiment [3] was found to be 15.7 µM; in experiment [4], 580 µM. In the experiment listed under Homo sapiens, the Ratio was 37.

Regarding `Cc1ccc(/C=C/P(=O)(O)O)cc1O`, the values for the Kis in experiment [3] and in experiment [4] were 50.3 µM and 42.4 µM, respectively. Moreover, in the experiment filed under Homo sapiens, the Ratio was found to be 0.8.

`O=P(O)(O)CCc1ccccc1`: the Kis is 552 µM in experiment [3] and above 10000 µM in experiment [4]. In the experiment filed under Homo sapiens, the Ratio was above 18.

For `Cc1ncc(/C=C/P(=O)(O)O)c(CO)c1O`, the Kis in experiment [3] is 16.3 µM; in experiment [4] it was 6060 µM. In the experiment listed under Homo sapiens, the Ratio was 372.

As to `Cc1ccc(/C=C/P(=O)(O)O)cc1`, the Kis in experiment [3] was found to be 66.8 µM; in experiment [4] it was 323 µM. The Ratio in the experiment listed under Homo sapiens came to 4.8.

Consider `Cc1ccc(/C=C/P(=O)(O)O)cn1`, for which the Kis worked out at 213 µM in experiment [3] and 842 µM in experiment [4]. For the same compound, the Ratio in the experiment listed under Homo sapiens stood at 4.

For `Cc1ccc(CCP(=O)(O)O)cc1`, the Kis was 130 µM in experiment [3] and 323 µM in experiment [4]. Further, the Ratio in the experiment listed under Homo sapiens was determined as 2.5.

Consider `Cc1ccc(CCP(=O)(O)O)cn1`, for which the Kis in experiment [3] was determined as 1.84 µM; in experiment [4], 15.6 µM. Further, the Ratio in the experiment filed under Homo sapiens was 8.5.

In the case of `Cc1ncc(/C=C/P(=O)(O)O)c(C=O)c1O`, the results for the Kis in experiment [3] and in experiment [4] were 5.14 µM and 113 µM, respectively. Besides, in the experiment filed under Homo sapiens, the Ratio came to 22.

In the case of `Cc1ncc(CCP(=O)(O)O)c(C=O)c1O`, the Kis in experiment [3] came out at 74.9 µM; in experiment [4], 218 µM. For the same compound, the Ratio in the experiment listed under Homo sapiens is 2.9.

With `O=P(O)(O)CCc1cccc(O)c1`, the Kis in experiment [3] worked out at 13 µM; in experiment [4], 52.2 µM. The Ratio in the experiment filed under Homo sapiens stood at 4.

Regarding `O=P(O)(O)/C=C/c1cccnc1`, the values for the Kis in experiment [3] and in experiment [4] were 243 µM and 1070 µM, respectively. For the same compound, the Ratio in the experiment filed under Homo sapiens came out at 4.4.
